Results on two compounds are retold here after patent publication US12521403B2, “Compositions for the treatment of chronic vulval and perineal pain and symptoms and conditions associated therewith” (TA Pharma Pty Limited, priority 2016, dated 2026).

The conditions of data set [1]: cited from earlier work.
Data set [2] is described as follows: Dissolution of estriol in solvents for the organic phase of the organogel. In kind it is physicochemical. Particulars: propylene glycol alone. On the procedure:
The ratio of propylene glycol to LIP was 4:10. For the aqueous phase, amitriptyline HCL was dissolved in water, then PLURONIC® F-127 was added to give a 20% PLURONIC® solution. The two phases were mixed using a syringe to syringe transfer method which produce a relatively high shear mixing. The ratio of organic to aqueous phases was 1:2. This produced a stable organogel with final concentrations of 300 mcg/g estriol and 0.5% w/w amitriptyline. Stability may be increased by the addition of potassium sorbate.
To increase the dissolution of the estriol in the organic phase, and thereby improve bioavailability, a combination of solubiliser (diethylene glycol monoethyl ether) and propylene glycol was employed. […] This was then blended with the LIP to produce the organic phase.

Counter-ions that a name gives are not always drawn. Like-named read-outs stand apart in the source and are kept apart here.

As for `CN(C)CCC=C1c2ccccc2CCc2ccccc21` [Amitriptyline HCL], the solubility in water in data set [1] (at pH 1.2) was 1000 mg/mL; in data set [1] (at pH 6.8), 0.9 mg/mL.

For `C[C@]12CC[C@@H]3c4ccc(O)cc4CC[C@H]3[C@@H]1C[C@@H](O)[C@@H]2O` [Estriol], in data set [2], the “dissolution in propylene glycol” value is reported as “did not produce a clear solution”. Also, in data set [1] (water), the solubility in water is on record as 27 mg per litre.
